Our source for the IC50 values is patent US9951063B2, “8-(piperazin-1-yl)-1,2,3,4-tetrahydro-isoquinoline derivatives” (IDORSIA PHARMACEUTICALS LTD, priority 2014, dated 2018).

Chain of human CXCR3A (P49682 whole entry): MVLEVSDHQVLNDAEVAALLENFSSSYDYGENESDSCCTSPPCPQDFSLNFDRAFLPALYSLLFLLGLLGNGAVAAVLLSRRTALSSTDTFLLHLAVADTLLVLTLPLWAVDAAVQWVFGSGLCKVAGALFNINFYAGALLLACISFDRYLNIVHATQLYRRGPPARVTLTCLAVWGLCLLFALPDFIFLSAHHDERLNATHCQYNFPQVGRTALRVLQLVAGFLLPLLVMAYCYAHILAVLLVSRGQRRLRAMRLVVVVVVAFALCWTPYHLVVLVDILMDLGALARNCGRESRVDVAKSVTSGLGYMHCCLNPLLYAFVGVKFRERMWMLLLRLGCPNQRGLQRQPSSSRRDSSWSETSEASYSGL

The target in the test is human CXCR3A (Homo sapiens (Human), UniProt P49682). The test can be described thus: FLIPR assay (inhibition of CXCL10-induced calcium signal). The class given is cell-based. Conditions: engineered CHO-K1 cells expressing human CXCR3A coupled to Galpha(16); Fluo-4-AM; CXCL10 agonist 20 nM; mean values where determined several times. The method, then:
The bioactivity of compounds is tested in a fluorometric imaging plate reader (FLIPR: Molecular Devices) using engineered CHO-K1 cells expressing the human CXCR3A (GenBank: AY242128) coupled to a G protein (Galpha(16)). Cells are plated the day prior to bioassay in F12 medium supplemented with 10% FBS and G418 and hygromycin antibiotics to maintain recombinant selection. At the day of bioassay, cells are washed and dye loaded for one hour with Fluo-4-AM (Invitrogen) in Hanks Balanced Salt Solution (Invitrogen), buffered with 20 mM Hepes at pH 7.4 and sodium bicarbonate (0.038%), containing 5 mM probenecid. This buffer, but lacking the dye and containing probenecid at a concentration of 2.5 mM, is also used for washing steps (wash buffer); or lacking both dye and probenecid but supplemented with 0.1% BSA for compound dilution steps (dilution buffer). Cells are washed free of excess dye and 60 microliter of wash buffer is added. Stock solutions of test compounds are made up at a concentration of 10 mM in DMSO, and serially diluted in dilution buffer to concentrations required for inhibition dose response curves. After a 10 minute incubation period at 37° C., 10 microliters of each compound dilution are transferred from a compound plate to the plate containing the recombinant cells in the FLIPR instrument according to the manufacturer's instructions. Following basal readings, 10 microliter CXCL10 agonist at a concentration of 20 nM (from Peprotech) is added, again using the FLIPR instrument. Changes in fluorescence are monitored before and after addition of the test compounds. Emission peak values above base level after CXCL10 addition are exported after base line subtraction.
The calculated IC50 values may fluctuate depending on the daily assay performance. Fluctuations of this kind are known to those skilled in the art. In the case where IC50 values have been determined several times for the same compound, mean values are given.
Usually IC50 stands for the point on the concentration scale where inhibition reaches its midpoint. Take `COc1ncc(N2CCc3c(C(F)(F)F)ccc(N4CCN(C(=O)Cn5cccn5)[C@H](C)C4)c3C2)cn1` [Example 25, 1-{(R)-4-[2-(2-Methoxy-pyrimidin-5-yl)-5-trifluoromethyl-1,2,3,4-tetrahydro-isoquinolin-8-yl]-2-methyl-piperazin-1-yl}-2-pyrazol-1-yl-ethanone]: the IC50 is 24 nM. As for `Cc1nc(C)n(CC(=O)N2CCN(c3cccc4c3CN(c3cnc(C(F)(F)F)nc3)CC4)C[C@H]2C)n1` [Example 125, 2-(3,5-Dimethyl-[1,2,4]triazol-1-yl)-1-{(R)-2-methyl-4-[2-(2-trifluoromethyl-pyrimidin-5-yl)-1,2,3,4-tetrahydro-isoquinolin-8-yl]-piperazin-1-yl}-ethanone], the IC50 turned out to be 47.4 nM.

Take `Cc1csc(N2CCc3cccc(N4CCN(C(=O)Cn5cnc6cccnc65)[C@H](C)C4)c3C2)n1` [Example 114, 2-Imidazo[4,5-b]pyridin-3-yl-1-{(R)-2-methyl-4-[2-(4-methyl-thiazol-2-yl)-1,2,3,4-tetrahydro-isoquinolin-8-yl]-piperazin-1-yl}-ethanone]: the IC50 is 9.53 nM. `C[C@@H]1CN(c2cccc3c2CN(C(=O)Cn2cnc4ccccc42)CC3)CCN1C(=O)Cn1cnc2cccnc21` [Example 86, 1-{(R)-4-[2-(2-Benzoimidazol-1-yl-acetyl)-1,2,3,4-tetrahydro-isoquinolin-8-yl]-2-methyl-piperazin-1-yl}-2-imidazo[4,5-b]pyridin-3-yl-ethanone]: the IC50 was 686 nM.

For `CCOc1ncc(N2CCc3cccc(N4CCN(C(=O)Cn5nc(C)cc5C)[C@H](C)C4)c3C2)cn1` [Example 128, 2-(3,5-Dimethyl-pyrazol-1-yl)-1-{(R)-4-[2-(2-ethoxy-pyrimidin-5-yl)-1,2,3,4-tetrahydro-isoquinolin-8-yl]-2-methyl-piperazin-1-yl}-ethanone], the IC50 is 7.94 nM. The value for `COc1ccc(N2CCc3cccc(N4CCN(C(=O)Cn5cnc6cccnc65)[C@H](C)C4)c3C2)cc1` [Example 105, 2-Imidazo[4,5-b]pyridin-3-yl-1-{(R)-4-[2-(4-methoxy-phenyl)-1,2,3,4-tetrahydro-isoquinolin-8-yl]-2-methyl-piperazin-1-yl}-ethanone] was 20.3 nM; that for `COc1ccc(CCC(=O)N2CCc3cccc(N4CCN(C(=O)Cn5cnc6cccnc65)[C@H](C)C4)c3C2)cc1` [Example 64, 1-{8-[(R)-4-(2-Imidazo[4,5-b]pyridin-3-yl-acetyl)-3-methyl-piperazin-1-yl]-3,4-dihydro-1H-isoquinolin-2-yl}-3-(4-methoxy-phenyl)-propan-1-one] was 188 nM; that for `C[C@@H]1CN(c2cccc3c2CN(c2cncnc2)CC3)CCN1C(=O)Cn1cnc2cccnc21` [Example 106, 2-Imidazo[4,5-b]pyridin-3-yl-1-[(R)-2-methyl-4-(2-pyrimidin-5-yl-1,2,3,4-tetrahydro-isoquinolin-8-yl)-piperazin-1-yl]-ethanone] was 5.46 nM. In the case of `Cc1cc(C)n(CC(=O)N2CCN(c3ccc(C(F)(F)F)c4c3CN(c3nc(C#N)cs3)CC4)C[C@H]2C)n1` [Example 7, 2-(8-{(R)-4-[2-(3,5-Dimethyl-pyrazol-1-yl)-acetyl]-3-methyl-piperazin-1-yl}-5-trifluoromethyl-3,4-dihydro-1H-isoquinolin-2-yl)-thiazole-4-carbonitrile] it was 29.2 nM; in that of `CCOc1ncc(N2CCc3c(C(F)(F)F)ccc(N4CCN(C(=O)CN5CCc6cccnc65)[C@@H](C)C4)c3C2)cn1` [Example 37, 2-(2,3-Dihydro-pyrrolo[2,3-b]pyridin-1-yl)-1-{(S)-4-[2-(2-ethoxy-pyrimidin-5-yl)-5-trifluoromethyl-1,2,3,4-tetrahydro-isoquinolin-8-yl]-2-methyl-piperazin-1-yl}-ethanone], 30.9 nM; in that of `COc1ccc(C(=O)N2CCc3cccc(N4CCN(C(=O)Cn5cnc6cccnc65)[C@H](C)C4)c3C2)cc1` [Example 62, 2-Imidazo[4,5-b]pyridin-3-yl-1-{(R)-4-[2-(4-methoxy-benzoyl)-1,2,3,4-tetrahydro-isoquinolin-8-yl]-2-methyl-piperazin-1-yl}-ethanone], 121 nM. `Cc1cc(C)n(CC(=O)N2CCN(c3ccc(C(F)(F)F)c4c3CN(c3nc(C(F)(F)F)cs3)CC4)C[C@H]2C)n1` [Example 2, 2-(3,5-Dimethyl-pyrazol-1-yl)-1-{(R)-2-methyl-4-[5-trifluoromethyl-2-(4-trifluoromethyl-thiazol-2-yl)-1,2,3,4-tetrahydro-isoquinolin-8-yl]-piperazin-1-yl}-ethanone]: the IC50 worked out at 6.07 nM.

On to `C[C@@H]1CN(c2cccc3c2CN(C(=O)c2ccnn2C)CC3)CCN1C(=O)Cn1cnc2cccnc21` [Example 89, 2-Imidazo[4,5-b]pyridin-3-yl-1-{(R)-2-methyl-4-[2-(2-methyl-2H-pyrazole-3-carbonyl)-1,2,3,4-tetrahydro-isoquinolin-8-yl]-piperazin-1-yl}-ethanone], for which the IC50 turned out to be 955 nM. As to `Cc1ccn(CC(=O)N2CCN(c3ccc(C(F)(F)F)c4c3CN(c3cnc(N(C)C)nc3)CC4)C[C@H]2C)n1` [Example 51, 1-{(R)-4-[2-(2-Dimethylamino-pyrimidin-5-yl)-5-trifluoromethyl-1,2,3,4-tetrahydro-isoquinolin-8-yl]-2-methyl-piperazin-1-yl}-2-(3-methyl-pyrazol-1-yl)-ethanone], the half-inhibitory concentration (IC50) was 4.93 nM. In the case of `Cc1nc(C)n(CC(=O)N2CCN(c3ccc(F)c4c3CN(c3cnc(C5CC5)nc3)CC4)C[C@H]2C)n1` [Example 133, 1-{(R)-4-[2-(2-Cyclopropyl-pyrimidin-5-yl)-5-fluoro-1,2,3,4-tetrahydro-isoquinolin-8-yl]-2-methyl-piperazin-1-yl}-2-(3,5-dimethyl-[1,2,4]triazol-1-yl)-ethanone] it was 5.42 nM; in that of `CCOc1ncc(N2CCc3cc(C(F)(F)F)cc(N4CCN(C(=O)Cn5cnc6cccnc65)[C@H](C)C4)c3C2)cn1` [Example 134, 1-{(R)-4-[2-(2-Ethoxy-pyrimidin-5-yl)-6-trifluoromethyl-1,2,3,4-tetrahydro-isoquinolin-8-yl]-2-methyl-piperazin-1-yl}-2-imidazo[4,5-b]pyridin-3-yl-ethanone], 52.1 nM; in that of `COc1ncc(N2CCc3cccc(N4CCN(C(=O)Cn5cnc6cccnc65)[C@H](C)C4)c3C2)cn1` [Example 118, 2-Imidazo[4,5-b]pyridin-3-yl-1-{(R)-4-[2-(2-methoxy-pyrimidin-5-yl)-1,2,3,4-tetrahydro-isoquinolin-8-yl]-2-methyl-piperazin-1-yl}-ethanone], 6.49 nM. Take `Cc1ccc2nc(N3CCc4c(C(F)(F)F)ccc(N5CCN(C(=O)Cn6nc(C)cc6C)[C@H](C)C5)c4C3)sc2c1` [Example 9, 2-(3,5-Dimethyl-pyrazol-1-yl)-1-{(R)-2-methyl-4-[2-(6-methyl-benzothiazol-2-yl)-5-trifluoromethyl-1,2,3,4-tetrahydro-isoquinolin-8-yl]-piperazin-1-yl}-ethanone]: the IC50 amounted to 13.7 nM.

Regarding `C[C@@H]1CN(c2cccc3c2CN(c2ccccn2)CC3)CCN1C(=O)Cn1cnc2cccnc21` [Example 104, 2-Imidazo[4,5-b]pyridin-3-yl-1-[(R)-2-methyl-4-(2-pyridin-2-yl-1,2,3,4-tetrahydro-isoquinolin-8-yl)-piperazin-1-yl]-ethanone], the IC50 came out at 9.71 nM. Regarding `COCC(=O)N1CCc2cccc(N3CCN(C(=O)Cn4cnc5cccnc54)[C@H](C)C3)c2C1` [Example 68, 2-Imidazo[4,5-b]pyridin-3-yl-1-{(R)-4-[2-(2-methoxy-acetyl)-1,2,3,4-tetrahydro-isoquinolin-8-yl]-2-methyl-piperazin-1-yl}-ethanone], the IC50 was 599 nM. The value for `Cc1nc(C)n(CC(=O)N2CCN(c3ccc(C(F)(F)F)c4c3CN(c3cnc(C(F)(F)F)nc3)CC4)C[C@H]2C)n1` [Example 59, 2-(3,5-Dimethyl-[1,2,4]triazol-1-yl)-1-{(R)-2-methyl-4-[5-trifluoromethyl-2-(2-trifluoromethyl-pyrimidin-5-yl)-1,2,3,4-tetrahydro-isoquinolin-8-yl]-piperazin-1-yl}-ethanone] was 12.3 nM; that for `Cc1ccn(CC(=O)N2CCN(c3ccc(C(F)(F)F)c4c3CN(c3cnc(C5CC5)nc3)CC4)C[C@H]2C)n1` [Example 48, 1-{(R)-4-[2-(2-Cyclopropyl-pyrimidin-5-yl)-5-trifluoromethyl-1,2,3,4-tetrahydro-isoquinolin-8-yl]-2-methyl-piperazin-1-yl}-2-(3-methyl-pyrazol-1-yl)-ethanone] was 1.4 nM. In the case of `C[C@@H]1CN(c2ccc(C(F)(F)F)c3c2CN(c2nc4ccc(F)cc4s2)CC3)CCN1C(=O)Cn1ncc2cccnc21` [Example 39, 1-{(R)-4-[2-(6-Fluoro-benzothiazol-2-yl)-5-trifluoromethyl-1,2,3,4-tetrahydro-isoquinolin-8-yl]-2-methyl-piperazin-1-yl}-2-pyrazolo[3,4-b]pyridin-1-yl-ethanone] it was 73.5 nM.
